According to ChEMBL document CHEMBL3044836, “Synthesis, antimicrobial and cytotoxic activities of novel 4-trifluoromethyl-(1,2,3)-thiadiazolo-5-carboxylic acid hydrazide Schiffs bases” (Med Chem Res, 2013):
In brackets after ≈: the same amount, converted by molar mass.

Columns and labels:
Format in all cases: functional
Aspergillus niger [1] = test: Antifungal activity against Aspergillus niger MTCC 1344 assessed as growth inhibition at 100 ug/ml after 48 hr by agar cup diffusion method; conditions: MTCC 1344, 48 h, read-out: DIZ
Candida albicans [2] = test: Antifungal activity against Candida albicans MTCC 227 assessed as growth inhibition at 150 ug/ml after 48 hr by agar cup diffusion method; conditions: MTCC 227, 48 h, read-out: DIZ
Pseudomonas aeruginosa = test: Antibacterial activity against Pseudomonas aeruginosa MTCC 741 assessed as growth inhibition by broth dilution method
Escherichia coli = test: Antibacterial activity against Escherichia coli MTCC 443 assessed as growth inhibition by broth dilution method
Saccharomyces cerevisiae [3] = test: Antifungal activity against Saccharomyces cerevisiae MTCC 36 assessed as growth inhibition at 150 ug/ml after 48 hr by agar cup diffusion method; conditions: MTCC 36, 48 h, read-out: DIZ
Aspergillus niger [4] = test: Antifungal activity against Aspergillus niger MTCC 1344 assessed as growth inhibition at 150 ug/ml after 48 hr by agar cup diffusion method; conditions: MTCC 1344, 48 h, read-out: DIZ
Diutina rugosa [5] = test: Antifungal activity against Candida rugosa NCIM 3462 assessed as growth inhibition at 150 ug/ml after 48 hr by agar cup diffusion method; conditions: NCIM 3462, 48 h, read-out: DIZ
[6] = test system: Staphylococcus epidermidis; test: Antibacterial activity against Staphylococcus epidermidis MTCC 435 assessed as growth inhibition by broth dilution method
Klebsiella pneumoniae = test: Antibacterial activity against Klebsiella pneumoniae assessed as growth inhibition by broth dilution method
Staphylococcus aureus = test: Antibacterial activity against Staphylococcus aureus MTCC 96 assessed as growth inhibition by broth dilution method
Bacillus subtilis = test: Antibacterial activity against Bacillus subtilis MTCC 441 assessed as growth inhibition by broth dilution method
Candida albicans [7] = test: Antifungal activity against Candida albicans MTCC 227 assessed as growth inhibition at 100 ug/ml after 48 hr by agar cup diffusion method; conditions: MTCC 227, 48 h, read-out: DIZ
Diutina rugosa [8] = test: Antifungal activity against Candida rugosa NCIM 3462 assessed as growth inhibition at 100 ug/ml after 48 hr by agar cup diffusion method; conditions: NCIM 3462, 48 h, read-out: DIZ
Saccharomyces cerevisiae [9] = test: Antifungal activity against Saccharomyces cerevisiae MTCC 36 assessed as growth inhibition at 100 ug/ml after 48 hr by agar cup diffusion method; conditions: MTCC 36, 48 h, read-out: DIZ
MDA-MB-231 = test: Cytotoxicity against Homo sapiens (human) MDA-MB-231 cells assessed as cell viability at 10 uM after 48 hr by MTT assay relative to control; conditions: MDA-MB-231, 48 h, read-out: Activity
MCF7 = test: Cytotoxicity against Homo sapiens (human) MCF7 cells assessed as cell viability at 10 uM after 48 hr by MTT assay relative to control; conditions: MCF7, 48 h, read-out: Activity

Row | MIC (Pseudomonas aeruginosa; read-out: MIC) | MIC (Escherichia coli; read-out: MIC) | MIC (Staphylococcus aureus; read-out: MIC) | MIC ([6]; read-out: MIC) | MIC (Klebsiella pneumoniae; read-out: MIC) | MIC (Bacillus subtilis; read-out: MIC) | Compound | zone of inhibition at 100 µg/mL (Aspergillus niger [1]) | zone of inhibition at 150 µg/mL (Candida albicans [2]) | zone of inhibition at 150 µg/mL (Saccharomyces cerevisiae [3]) | zone of inhibition at 150 µg/mL (Aspergillus niger [4]) | zone of inhibition at 150 µg/mL (Diutina rugosa [5]) | zone of inhibition at 100 µg/mL (Candida albicans [7]) | zone of inhibition at 100 µg/mL (Diutina rugosa [8]) | zone of inhibition at 100 µg/mL (Saccharomyces cerevisiae [9]) | viability at 10 µM (MDA-MB-231) | viability at 10 µM (MCF7) | also measured
1 | 150 µg/mL (≈ 417 µM) | 150 µg/mL (≈ 417 µM) | 150 µg/mL (≈ 417 µM) |  |  |  | C/C(=N\NC(=O)c1snnc1C(F)(F)F)c1ccc([N+](=O)[O-])cc1 | 0 mm | 0 mm | 0 mm | 0 mm | 0 mm | 0 mm | 0 mm | 0 mm |  |  | MIC [6]: > 150 µg/mL; MIC (Klebsiella pneumoniae): > 150 µg/mL; MIC (Bacillus subtilis): > 150 µg/mL
2 | 150 µg/mL (≈ 318 µM) | 150 µg/mL (≈ 318 µM) | 150 µg/mL (≈ 318 µM) | 150 µg/mL (≈ 318 µM) | 150 µg/mL (≈ 318 µM) | 150 µg/mL (≈ 318 µM) | C/C(=N\NC(=O)c1snnc1C(F)(F)F)c1ccc(Br)cc1Br | 0 mm | 15 mm | 0 mm | 0 mm | 0 mm | 11 mm | 0 mm | 0 mm | 94.7% | 123% | 
3 | 150 µg/mL (≈ 595 µM) | 150 µg/mL (≈ 595 µM) | 150 µg/mL (≈ 595 µM) | 150 µg/mL (≈ 595 µM) | 150 µg/mL (≈ 595 µM) | 150 µg/mL (≈ 595 µM) | CC(C)=NNC(=O)c1snnc1C(F)(F)F | 0 mm | 0 mm | 0 mm | 0 mm | 0 mm | 0 mm | 0 mm | 0 mm |  |  | 
4 | 150 µg/mL (≈ 539 µM) | 150 µg/mL (≈ 539 µM) | 150 µg/mL (≈ 539 µM) |  | 150 µg/mL (≈ 539 µM) | 150 µg/mL (≈ 539 µM) | O=C(NN=C1CCCC1)c1snnc1C(F)(F)F | 0 mm | 0 mm | 0 mm | 0 mm | 0 mm | 0 mm | 0 mm | 0 mm | 84.2% | 97.9% | MIC [6]: > 150 µg/mL
5 |  | 150 µg/mL (≈ 513 µM) | 150 µg/mL (≈ 513 µM) | 150 µg/mL (≈ 513 µM) | 150 µg/mL (≈ 513 µM) | 150 µg/mL (≈ 513 µM) | O=C(NN=C1CCCCC1)c1snnc1C(F)(F)F | 0 mm | 7 mm | 0 mm | 0 mm | 0 mm | 0 mm | 0 mm | 0 mm | 78.6% | 97.2% | MIC (Pseudomonas aeruginosa): > 150 µg/mL
6 | 150 µg/mL (≈ 490 µM) | 150 µg/mL (≈ 490 µM) | 150 µg/mL (≈ 490 µM) |  | 150 µg/mL (≈ 490 µM) |  | O=C(NN=C1CCCCCC1)c1snnc1C(F)(F)F | 0 mm | 0 mm | 0 mm | 0 mm | 0 mm | 0 mm | 0 mm | 0 mm |  |  | MIC [6]: > 150 µg/mL; MIC (Bacillus subtilis): > 150 µg/mL
7 | 150 µg/mL (≈ 448 µM) |  | 150 µg/mL (≈ 448 µM) |  | 150 µg/mL (≈ 448 µM) |  | O=C(N/N=C/c1ccc(Cl)cc1)c1snnc1C(F)(F)F | 0 mm | 0 mm | 0 mm | 0 mm | 0 mm | 0 mm | 0 mm | 0 mm |  |  | MIC (Escherichia coli): > 150 µg/mL; MIC [6]: > 150 µg/mL; MIC (Bacillus subtilis): > 150 µg/mL
8 |  |  | 150 µg/mL (≈ 396 µM) | 150 µg/mL (≈ 396 µM) | 150 µg/mL (≈ 396 µM) |  | O=C(N/N=C/c1ccc(Br)cc1)c1snnc1C(F)(F)F | 0 mm | 0 mm | 0 mm | 0 mm | 0 mm | 0 mm | 0 mm | 0 mm |  |  | MIC (Pseudomonas aeruginosa): > 150 µg/mL; MIC (Escherichia coli): > 150 µg/mL; MIC (Bacillus subtilis): > 150 µg/mL
9 | 150 µg/mL (≈ 434 µM) | 150 µg/mL (≈ 434 µM) | 150 µg/mL (≈ 434 µM) | 150 µg/mL (≈ 434 µM) | 150 µg/mL (≈ 434 µM) | 150 µg/mL (≈ 434 µM) | O=C(N/N=C/c1ccc([N+](=O)[O-])cc1)c1snnc1C(F)(F)F | 0 mm | 0 mm | 0 mm | 0 mm | 0 mm | 0 mm | 0 mm | 0 mm |  |  | 
10 | 150 µg/mL (≈ 437 µM) |  | 150 µg/mL (≈ 437 µM) | 150 µg/mL (≈ 437 µM) |  | 150 µg/mL (≈ 437 µM) | CN(C)c1ccc(/C=N/NC(=O)c2snnc2C(F)(F)F)cc1 | 0 mm | 0 mm | 0 mm | 0 mm | 0 mm | 0 mm | 0 mm | 0 mm |  |  | MIC (Escherichia coli): > 150 µg/mL; MIC (Klebsiella pneumoniae): > 150 µg/mL
11 |  | 150 µg/mL (≈ 474 µM) | 150 µg/mL (≈ 474 µM) | 150 µg/mL (≈ 474 µM) |  | 150 µg/mL (≈ 474 µM) | O=C(N/N=C/c1ccc(O)cc1)c1snnc1C(F)(F)F | 0 mm | 0 mm | 0 mm | 0 mm | 0 mm | 0 mm | 0 mm | 0 mm |  |  | MIC (Pseudomonas aeruginosa): > 150 µg/mL; MIC (Klebsiella pneumoniae): > 150 µg/mL
12 | 150 µg/mL (≈ 454 µM) | 150 µg/mL (≈ 454 µM) |  | 150 µg/mL (≈ 454 µM) | 150 µg/mL (≈ 454 µM) | 150 µg/mL (≈ 454 µM) | COc1ccc(/C=N/NC(=O)c2snnc2C(F)(F)F)cc1 | 0 mm | 0 mm | 0 mm | 0 mm | 0 mm | 0 mm | 0 mm | 0 mm | 87.3% | 101% | MIC (Staphylococcus aureus): > 150 µg/mL
13 | 150 µg/mL (≈ 517 µM) | 150 µg/mL (≈ 517 µM) | 150 µg/mL (≈ 517 µM) | 150 µg/mL (≈ 517 µM) | 150 µg/mL (≈ 517 µM) | 150 µg/mL (≈ 517 µM) | O=C(N/N=C/c1ccco1)c1snnc1C(F)(F)F | 0 mm | 0 mm | 0 mm | 0 mm | 0 mm | 0 mm | 0 mm | 0 mm | 89.5% | 100% | 
14 |  | 150 µg/mL (≈ 490 µM) | 150 µg/mL (≈ 490 µM) | 150 µg/mL (≈ 490 µM) | 150 µg/mL (≈ 490 µM) | 150 µg/mL (≈ 490 µM) | O=C(N/N=C/c1cccs1)c1snnc1C(F)(F)F | 0 mm | 0 mm | 0 mm | 0 mm | 0 mm | 0 mm | 0 mm | 0 mm | 91.9% | 102% | MIC (Pseudomonas aeruginosa): > 150 µg/mL
15 | 150 µg/mL (≈ 477 µM) |  |  | 150 µg/mL (≈ 477 µM) | 150 µg/mL (≈ 477 µM) | 150 µg/mL (≈ 477 µM) | C/C(=N\NC(=O)c1snnc1C(F)(F)F)c1ccccc1 | 0 mm | 0 mm | 0 mm | 0 mm | 0 mm | 0 mm | 0 mm | 0 mm | 94.5% | 115% | MIC (Escherichia coli): > 150 µg/mL; MIC (Staphylococcus aureus): > 150 µg/mL
16 | 12.5 µg/mL (≈ 37.4 µM) | 12.5 µg/mL (≈ 37.4 µM) | 1.56 µg/mL (≈ 4.67 µM) | 3.12 µg/mL (≈ 9.35 µM) | 6.25 µg/mL (≈ 18.7 µM) | 1.56 µg/mL (≈ 4.67 µM) | CC1(C)S[C@@H]2[C@H](NC(=O)Cc3ccccc3)C(=O)N2[C@H]1C(=O)O [PENICILLIN G] |  |  |  |  |  |  |  |  |  |  | 

Row | Compound | MIC (Pseudomonas aeruginosa; read-out: MIC) | MIC (Escherichia coli; read-out: MIC) | MIC (Staphylococcus aureus; read-out: MIC) | MIC ([6]; read-out: MIC) | MIC (Klebsiella pneumoniae; read-out: MIC) | MIC (Bacillus subtilis; read-out: MIC) | zone of inhibition at 100 µg/mL (Aspergillus niger [1]) | zone of inhibition at 150 µg/mL (Candida albicans [2]) | zone of inhibition at 150 µg/mL (Saccharomyces cerevisiae [3]) | zone of inhibition at 150 µg/mL (Aspergillus niger [4]) | zone of inhibition at 150 µg/mL (Diutina rugosa [5]) | zone of inhibition at 100 µg/mL (Candida albicans [7]) | zone of inhibition at 100 µg/mL (Diutina rugosa [8]) | zone of inhibition at 100 µg/mL (Saccharomyces cerevisiae [9]) | viability at 10 µM (MDA-MB-231) | viability at 10 µM (MCF7) | also measured
17 | CN[C@@H]1[C@H](O[C@H]2[C@H](O[C@H]3[C@H](O)[C@@H](O)[C@H](N=C(N)N)[C@@H](O)[C@@H]3N=C(N)N)O[C@@H](C)[C@]2(O)C=O)O[C@@H](CO)[C@H](O)[C@H]1O [STREPTOMYCIN] | 1.56 µg/mL (≈ 2.69 µM) | 6.25 µg/mL (≈ 10.7 µM) | 6.25 µg/mL (≈ 10.7 µM) | 3.12 µg/mL (≈ 5.37 µM) | 3.12 µg/mL (≈ 5.37 µM) | 6.25 µg/mL (≈ 10.7 µM) |  |  |  |  |  |  |  |  |  |  | 
